48 compounds from ChEMBL document CHEMBL5584340, “Discovery of Novel Antiosteoporosis Leads with Bone Resorption Inhibition and Anabolic Promotion through a Chemotype-Assembly Approach” (J Med Chem, 2024) can be followed below.

The test system of series [1] is BMDM. The series is described as follows: Anti-osteoclastogenic activity in M-CSF/RANKL-induced C57BL/6 mouse BMDM cells assessed as inhibition of M-CSF/RANKL-stimulated osteoclast differentiation measured after 5 days by TRAP staining based microscopic analysis. It counts as functional, cell-based. Conditions: C57BL/6, BMDM, 120 h.
A short description of series [2]: Cytotoxicity against mouse RAW264.7 cells incubated for 48 hrs by CCK-8 assay. In kind it is toxicity, cell-based.
In series [3] the test system is BMDM. The series is described as follows: Anti-osteoclastogenic activity in M-CSF/RANKL-induced C57BL/6 mouse BMDM cells assessed as inhibition of M-CSF/RANKL-stimulated osteoclast differentiation at 10 uM measured after 5 days by TRAP staining based microscopic analysis relative to control. Set-up: scale not given: the % may be the effect or the level left. Conditions: time 5 day. It counts as functional.

The subject of series [4] is C3H 10T1/2. Nature of the series: Anabolic activity in mouse C3H 10T1/2 cells by measuring fold change in osteoblast differentiation at 10 uM incubated for 7 days by ALP staining based analysis. In kind it is functional. The settings on record: time 7 day.
In series [5] the test system is C3H 10T1/2. Nature of the series: Induction of osteoblastogenesis in mouse C3H 10T1/2 cells assessed as upregulation of SP7 gene expression at 1 uM incubated for 7 days by RT-qPCR analysis. In kind it is functional, cell-based. Conditions: time 7.0 day.
For series [6], the system named is C3H 10T1/2. Nature of the series: Induction of osteoblastogenesis in mouse C3H 10T1/2 cells assessed as upregulation of ALP gene expression at 1 uM incubated for 7 days by RT-qPCR analysis. The settings on record: time 7.0 day. In kind it is functional, cell-based.
In series [7] the test system is C3H 10T1/2. Nature of the series: Induction of osteoblastogenesis in mouse C3H 10T1/2 cells assessed as upregulation of SPARC gene expression at 1 uM incubated for 7 days by RT-qPCR analysis. It counts as functional, cell-based. Conditions: time 7.0 day.
Series [8] concerns C3H 10T1/2. Nature of the series: Induction of osteoclastogenesis in mouse C3H 10T1/2 cells assessed as upregulation of RANKL gene expression at 1 uM incubated for 7 days by RT-qPCR analysis. It counts as functional, cell-based. The settings on record: time 7.0 day.
Series [9] has as its system C3H 10T1/2. Nature of the series: Induction of osteoblast differentiation in mouse C3H 10T1/2 cells at 10 uM incubated for 7 days by ALP staining based analysis. It counts as functional, cell-based. Conditions: time 7.0 day.
The subject of series [10] is C3H 10T1/2. Nature of the series: Induction of osteoblast mineralization in mouse C3H 10T1/2 cells assessed as increase in calcium deposition at 10 uM measured after 14 days by Alizarin Red S staining based analysis. It counts as functional, cell-based. Conditions: time 14.0 day.
The test system of series [11] is BMDM. Nature of the series: Anti-osteoclastogenic activity in M-CSF/RANKL-induced C57BL/6 mouse BMDM cells assessed as downregulation of CTSK mRNA expression at 1 uM incubated for 7 days by RT-qPCR analysis. In kind it is functional, cell-based. Conditions: time 7.0 day.
Series [12] deals with BMDM. The series is described as follows: Anti-osteoclastogenic activity in M-CSF/RANKL-induced C57BL/6 mouse BMDM cells assessed as downregulation of C-Fos mRNA expression at 1 uM incubated for 7 days by RT-qPCR analysis. The settings on record: time 7.0 day. It counts as functional, cell-based.
Series [13] deals with BMDM. The series is described as follows: Anti-osteoclastogenic activity in M-CSF/RANKL-induced C57BL/6 mouse BMDM cells assessed as downregulation of TRACP mRNA expression at 1 uM incubated for 7 days by RT-qPCR analysis. The settings on record: time 7.0 day. In kind it is functional, cell-based.
Series [14] has as its system BMDM. Nature of the series: Anti-osteoclastogenic activity in M-CSF/RANKL-induced C57BL/6 mouse BMDM cells assessed as downregulation of ATP6VOD2 mRNA expression at 1 uM incubated for 7 days by RT-qPCR analysis. It counts as functional, cell-based. The settings on record: time 7.0 day.
Series [15] concerns C3H 10T1/2. Nature of the series: Induction of osteoblast mineralization in mouse C3H 10T1/2 cells assessed as increase in calcium deposition at 1 uM measured after 14 days by Alizarin Red S staining based analysis. It counts as functional, cell-based. Conditions: time 14.0 day.

The source made the active and inactive calls. The calls are words filed in the database; no cut-off is given here.

With `Cc1ccc(C(=O)Nc2nccs2)c(C(=O)O)c1`, the IC50 with BMDM [1] stood at 12.8 µM. In series [2], the CC50 at 48 h was found to be 46.9 µM.
For `COc1cccc(C(=O)O)c1C(=O)Nc1nccs1`, in that order: 3.94 µM and 36.3 µM.
Consider `Cc1cccc(NC(=O)c2ccccc2C(=O)O)c1C`, for which the Activity with BMDM [3] is on record as less than 10%.
For the compound `O=C(O)c1cc(Cl)ccc1C(=O)Nc1nc2ccccc2s1`, in the series on BMDM [1], the 50% inhibitory concentration (IC50) worked out at 3.5 µM. Besides, the CC50 at 48 h in series [2] worked out at 1330 µM.
On the same counts, the results for `COC(=O)c1ccccc1C(=O)Nc1nccs1` are 28.1 µM and 498 µM.
For the compound `CC(C)(C)c1ccc(-c2cc(C(=O)O)c3ccccc3n2)cc1`, in the series with BMDM [3], the Activity is 80%. Further, the “fold change (FC)” value with C3H 10T1/2 [4] is on record as less than 2.
As for `Cc1cc(C)c(S(=O)(=O)Nc2ccc(C(=O)O)cc2)cc1C`, in the series on BMDM [3], the Activity is less than 10%.
As for `O=C(O)c1ccccc1C(=O)Nc1nc2c(s1)CCCC2`, the Activity in the series on BMDM [3] is recorded as less than 10%.
With `O=C(O)c1ccccc1C(=O)Nc1nccs1`, the outcome with C3H 10T1/2 [5], with C3H 10T1/2 [6], in the series on C3H 10T1/2 [7], in the series with C3H 10T1/2 [9] and in the series with C3H 10T1/2 [10] was Active. Further, the Activity in the series on BMDM [3] turned out to be 75%. For the same compound, the outcome in the series on C3H 10T1/2 [8] was inactive. Also, in the series on BMDM [1], the IC50 was 8.5 µM. For the same compound, the “fold change (FC)” value in the series on C3H 10T1/2 [4] worked out at 11.4. The same compound displayed a CC50 at 48 h in series [2] of 178 µM.
As to `Cc1cccc(C)c1NC(=O)c1ccccc1C(=O)O` [FTAXILIDE], in the series on BMDM [3], the Activity is reported as 80%. Besides, the “fold change (FC)” value with C3H 10T1/2 [4] is listed as 6.
Take `O=C(Nc1nccs1)c1cccc(F)c1C(=O)O`: in the series with BMDM [1], the IC50 worked out at 3.16 µM. In series [2], the CC50 at 48 h is 930 µM.
For the compound `NC(Cc1cc(I)c(Oc2cc(I)c(O)c(I)c2)c(I)c1)C(=O)O` (configuration not stated) [THYROXINE], the Activity in the series on BMDM [3] is less than 10%.
As for `O=C(O)c1ccccc1C(=O)Nc1ccccn1`, the IC50 in the series on BMDM [1] worked out at 14.4 µM. For the same compound, the midpoint of cytotoxicity in series [2], the CC50 at 48 h, lay at 3820 µM.
Turning to `O=C(O)c1ccc(N2C(=O)CSC2=S)cc1`, the Activity in the series on BMDM [3] was found to be 79%. Moreover, the “fold change (FC)” value in the series on C3H 10T1/2 [4] is listed as 7.5.
For `Cc1ccc(-c2nc3ccccc3c(C(=O)O)c2C)cc1`, the Activity with BMDM [3] is listed as less than 10%.
On the same count and under the same terms, under `O=C(O)c1ccc2[nH]c(-c3cccc(-c4nc5cc(C(=O)O)ccc5[nH]4)c3)nc2c1` stands 20%.
Take `Cc1cccc(C(=O)Nc2scc(-c3cccs3)c2C(=O)O)c1`: the Activity in the series on BMDM [3] is given as less than 10%.
Still for that read-out and setting: under `Cc1cc(C(=O)O)ccc1-c1ccc(CO)o1` stands less than 10%.
`CCOC(=O)c1sc(NC(=O)c2cc3ccccc3cc2C(=O)O)nc1C`: the IC50 with BMDM [1] turned out to be 2.35 µM. The CC50 at 48 h in series [2] was found to be 506 µM.
`Cc1ccc(-c2cc(C(=O)O)c3cccc(C)c3n2)cc1`: the Activity with BMDM [3] is on record as less than 10%.
The same measure, in the same setting: the same measure for `COc1ccccc1-c1cc(C(=O)O)c2ccccc2n1`: less than 10%; for `COc1cccc(-c2cc(C(=O)O)c3ccccc3n2)c1`: less than 10%.
For the compound `O=C(O)c1cc(Cl)ccc1C(=O)Nc1nccs1`, the IC50 in the series with BMDM [1] turned out to be 2.02 µM. The CC50 at 48 h in [2] was 144 µM.
Consider `O=C(Nc1nccs1)c1cccc(O)c1C(=O)O`, for which the IC50 in the series on BMDM [1] is greater than 33 µM.
Consider `Cc1csc(NC(=O)c2ccccc2C(=O)O)n1`, for which the IC50 in the series with BMDM [1] amounted to 12.4 µM. In [2], this compound had a CC50 at 48 h of 212 µM.
With `O=C(O)C1OC(Oc2cc3oc(-c4ccc(O)cc4)cc(=O)c3c(O)c2O)C(O)C(O)C1O` (configuration not stated), the Activity in the series on BMDM [3] worked out at 80%. The “fold change (FC)” value with C3H 10T1/2 [4] is listed as less than 2.
As for `CCOC(=O)c1sc(NC(=O)c2ccccc2C(=O)O)nc1C`, the IC50 in the series with BMDM [1] is greater than 33 µM.
Take `O=C(O)c1cc2ccccc2cc1C(=O)Nc1nccs1`: the result in the series with BMDM [11], with C3H 10T1/2 [5], in the series on C3H 10T1/2 [6], in the series with C3H 10T1/2 [7], in the series with BMDM [12] and in the series with BMDM [13] was Active. The outcome with BMDM [14] and with C3H 10T1/2 [15] was Active. Further, the outcome in the series on C3H 10T1/2 [8] was inactive. For the same compound, in the series with BMDM [1], the IC50 is 1.05 µM. The same compound yielded a CC50 at 48 h in [2] of 490 µM.
For `O=C(O)c1cccc(Nc2nc3ccccc3[nH]2)c1`, the Activity with BMDM [3] worked out at 33%.
For the compound `COc1ccc(-c2cc(C(=O)O)c3ccccc3n2)cc1OC`, in the series with BMDM [3], the Activity stood at 40%.
Same read-out and setting: the same measure for `Cc1ccc(C)c(-c2cc(C(=O)O)c3ccccc3n2)c1`: less than 10%.
`O=C(O)c1ccccc1SCc1cc(O)nc(O)n1`: the Activity in the series on BMDM [3] came to 90%. For the same compound, the “fold change (FC)” value in the series on C3H 10T1/2 [4] came to 8.2.
In the case of `COc1ccc(-c2nc(NC(=O)C3CCCCC3C(=O)O)sc2C)cc1` (configuration not stated), in the series with BMDM [3], the Activity is recorded as less than 10%.
Turning to `Cc1ccc2nc(-c3ccc(Cl)cc3)cc(C(=O)O)c2c1`, in the series on BMDM [3], the Activity amounted to 80%. In the series with C3H 10T1/2 [4], the “fold change (FC)” value amounted to 2.4.
As for `Cn1ncc2c(Nc3ccc(C(=O)O)cc3)ncnc21`, the Activity with BMDM [3] is reported as 50%. In the series with C3H 10T1/2 [4], the “fold change (FC)” value was 3.2.
Turning to `CCc1ccc(-c2cc(C(=O)O)c3ccccc3n2)cc1`, the Activity in the series on BMDM [3] is recorded as 30%.
On to `NCCCC(O)(P(=O)([O-])O)P(=O)(O)O.[Na+]` [ALENDRONATE SODIUM], for which the Activity with BMDM [3] turned out to be 81%. Also, in the series on BMDM [1], the IC50 was determined as 0.39 µM.
Take `Nc1ccc(-c2cc(C(=O)O)c3ccccc3n2)cc1`: the Activity in the series on BMDM [3] is reported as less than 10%.
On the same count and under the same terms, the same measure for `O=C1NC(=O)C(=NNc2cccc(C(=O)O)c2)C(=O)N1`: less than 10%.
On the same count and under the same terms, the same measure for `COc1ccc(-c2occ(C(=O)O)c2C(=O)O)cc1`: less than 10%.
Same read-out and setting: under `NC(Cc1cc(I)c(Oc2ccc(O)c(I)c2)c(I)c1)C(=O)O` (configuration not stated) [RATHYRONINE] stands less than 10%.
As to `Nc1cccc(-c2cc(C(=O)O)c3ccccc3n2)c1`, the Activity with BMDM [3] is 50%. The “fold change (FC)” value in the series with C3H 10T1/2 [4] is less than 2.
With `O=C(O)c1ccc(-c2cnc3ccccc3n2)cc1`, in the series on BMDM [3], the Activity was less than 10%.
Regarding `CN1C(=O)[C@@H](/N=N/c2ccccc2C(=O)O)N(C)C1=S`, in the series with BMDM [3], the Activity worked out at 50%. Moreover, in the series with C3H 10T1/2 [4], the “fold change (FC)” value turned out to be 3.9.
For `Cc1ccc(-c2cc(C(=O)O)c3ccccc3n2)c(C)c1`, the Activity in the series with BMDM [3] is less than 10%.
For `O=C(O)c1cccc(NS(=O)(=O)c2ccc(I)cc2)c1`, the Activity in the series on BMDM [3] is on record as less than 10%.
With `O=C(O)c1ccccc1C(=O)Nc1nc2ccccc2s1`, in the series with BMDM [1], the IC50 came out at 2.35 µM. Besides, the CC50 at 48 h in [2] was found to be 380 µM.
In the case of `CN(CCCC(=O)O)c1nc(-c2ccc(Br)cc2)cs1`, the Activity in the series on BMDM [3] is less than 10%.
